Results: patent publication US20130310431A1, “USES FOR SUBSTITUTED 2-AMINO-THIAZOLONES IN TREATING ALZHEIMER'S DISEASE” (Amgen Inc, priority 2010, published 2013)
Entries after “also recorded” stand apart in the source; their conditions may differ.

Columns and labels:
aged Wistar rats = test: Novel object recognition study (reversal of age-related behavioral deficits); format: in vivo; conditions: aged (20 months) Wistar rats, 14 day treatment, 3, 10, 30 mg/kg; compared to galantamine; FIG. 1; listed as AMG221
Protocol: Thus, over a 14 day treatment period, young and aged (20 months) Wistar rats were administered formulations as follows: […]
1. Young: pharmaceutical vehicle (no active agent);
2. Young: galantamine, an acetylcholinesterase inhibitor as a positive control;

[1] = Concentration vs. time profiles in plasma, CSF, brain regions and fat after intravenous infusion; format: in vivo, cynomolgus monkeys; conditions: cynomolgus monkey, intravenous infusion for 1 hour
Protocol: The concentration of AMG221 in the biological samples described above was measured as a function of time.
The concentration of (B) in the biological samples described above was measured as a function of time.

time concentrations exceeded the cynomolgus Ki for 11β-HSD1 in CSF ([1]; CSF) | distribution into fat ([1]; relative to AMG221) | Structure (SMILES) | improvement in novel object recognition (aged Wistar rats) | distribution within central nervous system versus fat [1] | time concentrations exceeded the cynomolgus Ki for 11β-HSD1 in unbound plasma [1]
– | – | CC(C)[C@]1(C)SC(N[C@H]2C[C@@H]3CC[C@H]2C3)=NC1=O [Compound (A)] | reverses age-related behavioral deficits; also recorded: superior improvement in novel object recognition | distributed uniformly and more rapidly within the central nervous system than in fat | three
five | distributed poorly into fat | CC(C)[C@]1(C)SC(N[C@H]2C[C@H]3C[C@@H]2C[C@@H]3O)=NC1=O [Compound (B)] | – | distributed uniformly and more rapidly within the central nervous system than in fat | eight
